Patent publication US9963467B2, “Boronic acid derivatives and therapeutic uses thereof” (Rempex Pharmaceuticals, Inc., priority 2014, dated 2018)

Tests used:
ECL1002 [1] = assay: Tigemonam potentiation (MPC@4), ECL1002; format: cell-based; conditions: BLI with tigemonam at 4 μg/mL
KP1009 (CTX-M-15) [2] = assay: organism not typed; format: cell-based
EC1010 (CMY-6) [3] = assay: organism not typed; format: cell-based
KP1010 (SHV-12) [4] = assay: Tigemonam potentiation (MPC@4), KP1010; format: cell-based
ECL1002 [5] = assay: Aztreonam potentiation (MPC@4), ECL1002; format: cell-based; conditions: BLI with aztreonam at 4 μg/mL
KP1010 (SHV-12) [6] = assay: Aztreonam potentiation (MPC@4), KP1010; format: cell-based
ec308 (SHV-5) [7] = assay: Tigemonam potentiation (MPC@4), ec308; format: cell-based
KP1005 (CTX-M-14) [8] = assay: Aztreonam potentiation (MPC@4), KP1005; format: cell-based; conditions: BLI with aztreonam at 4 μg/mL
Pa AmpC = Pa AmpC (Pseudomonas aeruginosa, UniProt P24735); assay: Ki, nitrocefin cleavage by purified enzyme, Pa AmpC; format: biochemical; conditions: nitrocefin reporter substrate; read-out: Ki (Pa AmpC, NCF)
In short: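 Purified enzymes are exposed to inhibitor concentrations in reaction buffer for 10 min at room temperature. Nitrocefin is then added. Cleavage is read at 490 nm every 10 sec for 10 min, giving Ki.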

ec302 (TEM-10) [9] = assay: Tigemonam potentiation (MPC@4), ec302; format: cell-based
KP1005 (CTX-M-14) [10] = assay: Tigemonam potentiation (MPC@4), KP1005; format: cell-based; conditions: BLI with tigemonam at 4 μg/mL
KP1086 (OXA-48) = assay: Biapenem potentiation (MPC@1), KP1086; conditions: BLI with biapenem at 1 μg/mL
KP1004 (KPC-2) [11] = assay: Biapenem potentiation (MPC@1), KP1004; conditions: BLI with biapenem at 1 μg/mL
KP1009 (CTX-M-15) [12] = assay: Tigemonam potentiation (MPC@4), KP1009; format: cell-based; conditions: BLI with tigemonam at 4 μg/mL
ec308 (SHV-5) [13] = assay: Aztreonam potentiation (MPC@4), ec308; format: cell-based; conditions: BLI with aztreonam at 4 μg/mL
[14] = Monomer content of pH adjusted aqueous solutions (LC-UV); format: physicochemical; conditions: 1 mg/mL aqueous salt solution, pH adjusted to 7.6 to 8, LC-UV
In short: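 Aqueous solutions at 1.00, 10.0 or 100 mg/mL (active fraction) brought to pH 7.6–8 with acid or base, compound fully dissolved. Injected within half an hour of preparation onto C18 reversed-phase LC (0.1% TFA water / 0.085% TFA methanol gradient); UV detection at 220, 254 and 300 nm.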

KPC-2 = KPC-2 (Klebsiella pneumoniae, UniProt Q9F663); assay: Ki, nitrocefin cleavage by purified enzyme, KPC-2; format: biochemical; conditions: nitrocefin reporter substrate; read-out: Ki (KPC-2, NCF)
In short: (§1)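 Readout: nitrocefin hydrolysis, A490 recorded every 10 sec over 10 min. Enzyme and inhibitor (varied concentrations) preincubated 10 min, RT, in reaction buffer before substrate addition.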

KP1004 (KPC-2) [15] = assay: Aztreonam potentiation (MPC@4), KP1004; format: cell-based; conditions: BLI with aztreonam at 4 μg/mL
EC1010 (CMY-6) [16] = assay: Tigemonam potentiation (MPC@4), EC1010; format: cell-based; conditions: BLI with tigemonam at 4 μg/mL
P99 = P99 (Enterobacter cloacae, UniProt P05364); assay: Ki, nitrocefin cleavage by purified enzyme, P99; format: biochemical; conditions: nitrocefin reporter substrate; read-out: Ki (P99, NCF)
In short: as §1

CTX-M-14 = CTX-M-14 (Escherichia coli, UniProt Q9L5C7); assay: Ki, nitrocefin cleavage by purified enzyme, CTX-M-14; format: biochemical; conditions: nitrocefin reporter substrate; read-out: Ki (CTX-M-14, NCF)
In short: as §1

ec302 (TEM-10) [17] = assay: Aztreonam potentiation (MPC@4), ec302; format: cell-based; conditions: BLI with aztreonam at 4 μg/mL
SHV-12 = SHV-12 (Klebsiella pneumoniae, UniProt P0AD64, E235K/G234S/L31Q); assay: Ki, nitrocefin cleavage by purified enzyme, SHV-12; format: biochemical; conditions: nitrocefin reporter substrate; read-out: Ki (SHV-12, NCF)
In short: as §1

OXA-48 = OXA-48 (Klebsiella pneumoniae, UniProt Q6XEC0); assay: Ki, nitrocefin cleavage by purified enzyme, OXA-48; format: biochemical; conditions: nitrocefin reporter substrate; read-out: Ki (OXA-48, NCF)
In short: as §1

Sequence of Pa AmpC (P24735 27-397): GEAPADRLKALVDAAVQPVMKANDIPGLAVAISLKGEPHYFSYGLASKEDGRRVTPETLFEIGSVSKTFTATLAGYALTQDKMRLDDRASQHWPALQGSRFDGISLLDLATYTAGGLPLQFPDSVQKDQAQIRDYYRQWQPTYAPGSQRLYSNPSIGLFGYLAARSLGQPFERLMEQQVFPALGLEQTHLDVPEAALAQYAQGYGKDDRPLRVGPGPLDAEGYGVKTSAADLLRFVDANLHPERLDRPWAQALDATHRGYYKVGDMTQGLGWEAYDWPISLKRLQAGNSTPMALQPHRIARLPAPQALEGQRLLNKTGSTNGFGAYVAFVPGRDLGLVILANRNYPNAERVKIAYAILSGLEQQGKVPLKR
Sequence of SHV-12 (P0AD64 22-286 L31Q/G234S/E235K): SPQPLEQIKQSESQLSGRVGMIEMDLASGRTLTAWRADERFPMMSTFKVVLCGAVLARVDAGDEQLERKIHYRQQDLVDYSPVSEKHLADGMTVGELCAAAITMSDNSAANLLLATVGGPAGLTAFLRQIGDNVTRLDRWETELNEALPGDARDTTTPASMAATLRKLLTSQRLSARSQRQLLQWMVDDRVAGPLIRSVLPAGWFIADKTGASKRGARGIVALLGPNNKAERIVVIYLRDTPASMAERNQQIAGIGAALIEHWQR
Sequence of P99 (P05364 21-381): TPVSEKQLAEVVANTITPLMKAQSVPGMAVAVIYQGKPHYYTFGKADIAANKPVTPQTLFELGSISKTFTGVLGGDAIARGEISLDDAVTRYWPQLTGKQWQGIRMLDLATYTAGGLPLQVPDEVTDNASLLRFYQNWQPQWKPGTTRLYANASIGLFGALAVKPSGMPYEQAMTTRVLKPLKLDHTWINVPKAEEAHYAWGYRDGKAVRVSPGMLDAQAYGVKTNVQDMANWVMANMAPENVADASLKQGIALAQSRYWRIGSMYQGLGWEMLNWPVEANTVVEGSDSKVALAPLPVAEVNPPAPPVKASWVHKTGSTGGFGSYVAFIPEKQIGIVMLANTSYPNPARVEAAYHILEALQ
Sequence of CTX-M-14 (Q9L5C7 29-291): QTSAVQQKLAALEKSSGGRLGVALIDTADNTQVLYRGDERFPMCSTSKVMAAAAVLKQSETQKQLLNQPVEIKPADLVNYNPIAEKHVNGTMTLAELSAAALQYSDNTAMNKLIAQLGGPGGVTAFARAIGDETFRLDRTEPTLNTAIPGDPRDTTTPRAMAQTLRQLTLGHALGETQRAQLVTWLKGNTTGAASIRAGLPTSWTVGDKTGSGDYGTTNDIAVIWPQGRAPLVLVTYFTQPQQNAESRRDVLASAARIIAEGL
Sequence of OXA-48 (Q6XEC0 23-265, looked up, species assumed): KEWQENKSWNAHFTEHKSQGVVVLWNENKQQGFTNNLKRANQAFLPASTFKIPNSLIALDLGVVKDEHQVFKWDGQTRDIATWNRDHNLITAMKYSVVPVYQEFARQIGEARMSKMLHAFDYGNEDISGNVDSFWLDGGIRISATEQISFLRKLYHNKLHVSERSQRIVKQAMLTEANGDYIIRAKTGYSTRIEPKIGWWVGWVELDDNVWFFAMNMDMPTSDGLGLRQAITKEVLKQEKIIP
Sequence of KPC-2 (Q9F663 25-293, looked up, species assumed): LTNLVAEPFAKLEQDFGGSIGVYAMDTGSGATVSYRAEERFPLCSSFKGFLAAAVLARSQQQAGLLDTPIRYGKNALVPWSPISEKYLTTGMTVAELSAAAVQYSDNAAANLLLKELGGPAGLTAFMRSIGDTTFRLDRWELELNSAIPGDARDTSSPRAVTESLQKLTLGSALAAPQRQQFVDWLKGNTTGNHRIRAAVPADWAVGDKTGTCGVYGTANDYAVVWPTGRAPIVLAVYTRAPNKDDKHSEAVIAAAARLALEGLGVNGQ

Row | SMILES | TIG MPC4 ECL1002 (ECL1002 [1]) | AZT MPC4 CTX-M-15 KP1009 (KP1009 (CTX-M-15) [2]) | AZT MPC4 CMY-6 EC1010 (EC1010 (CMY-6) [3]) | TIG MPC4 SHV-12 KP1010 (KP1010 (SHV-12) [4]) | AZT MPC4 ECL1002 (ECL1002 [5]) | TIG MPC4 SHV-5 ec308 (ec308 (SHV-5) [7]) | AZT MPC4 CTX-M-14 KP1005 (KP1005 (CTX-M-14) [8]) | Ki (Pa AmpC) [nM] | TIG MPC4 TEM-10 ec302 (ec302 (TEM-10) [9]) | TIG MPC4 CTX-M-14 KP1005 (KP1005 (CTX-M-14) [10]) | BPM MPC1 OXA-48 KP1086 (KP1086 (OXA-48)) | BPM MPC1 KP1004 KPC-2 (KP1004 (KPC-2) [11]) | TIG MPC4 CTX-M-15 KP1009 (KP1009 (CTX-M-15) [12]) | AZT MPC4 SHV-5 ec308 (ec308 (SHV-5) [13]) | further results
1 | CSCC(=O)N[C@H]1Cc2cccc(C(=O)O)c2OB1O [A, reference compound] | X (MIC of less than 1 μg/mL) | X (key: X: MIC of less than 1 ng/mL; Y: MIC of 1 μg/mL to 10 μg/mL; Z: MIC of greater than 10 μg/mL) | X (key: X: MIC of less than 1 ng/mL; Y: MIC of 1 μg/mL to 10 μg/mL; Z: MIC of greater than 10 μg/mL) | X (key: X: MIC of less than 1 μg/mL; Y: MIC of 1 μg/mL to 10 μg/mL; Z: MIC of greater than 10 μg/mL) | X (MIC of less than 1 ng/mL) | X (key: X: MIC of less than 1 μg/mL; Y: MIC of 1 μg/mL to 10 μg/mL; Z: MIC of greater than 10 μg/mL) | X (MIC of less than 1 ng/mL) | 1 to 10 | Y (key: X: MIC of less than 1 ng/mL; Y: MIC of 1 μg/mL to 10 μg/mL; Z: MIC of greater than 10 μg/mL) | Y (MIC of 1 μg/mL to 10 μg/mL) | Y (MIC of 1 μg/mL to 10 μg/mL) | X (MIC of less than 1 μg/mL) | X (MIC of less than 1 μg/mL) | X (MIC of less than 1 ng/mL) | AZT MPC4 SHV-12 KP1010 (KP1010 (SHV-12) [6]): X (key: X: MIC of less than 1 ng/mL; Y: MIC of 1 μg/mL to 10 μg/mL; Z: MIC of greater than 10 μg/mL)
2 | CSCC(=O)N[C@H]1Cc2c(F)cc(F)c(C(=O)O)c2OB1O [Compound 32, (R)-5,7-difluoro-2-hydroxy-3-(2-(methylthio)acetamido)-3,4-dihydro-2H-benzo[e][1,2]oxaborinine-8-carboxylic acid] | Y (MIC of 1 μg/mL to 10 μg/mL) | Y (key: X: MIC of less than 1 ng/mL; Y: MIC of 1 μg/mL to 10 μg/mL; Z: MIC of greater than 10 μg/mL) | Y (key: X: MIC of less than 1 ng/mL; Y: MIC of 1 μg/mL to 10 μg/mL; Z: MIC of greater than 10 μg/mL) | X (key: X: MIC of less than 1 μg/mL; Y: MIC of 1 μg/mL to 10 μg/mL; Z: MIC of greater than 10 μg/mL) | Y (MIC of 1 μg/mL to 10 μg/mL) | Y (key: X: MIC of less than 1 ng/mL; Y: MIC of 1 μg/mL to 10 μg/mL; Z: MIC of greater than 10 μg/mL) | Y (MIC of 1 μg/mL to 10 μg/mL) | > 10 | Z (key: X: MIC of less than 1 ng/mL; Y: MIC of 1 μg/mL to 10 μg/mL; Z: MIC of greater than 10 μg/mL) | Y (MIC of 1 μg/mL to 10 μg/mL) | Y (MIC of 1 μg/mL to 10 μg/mL) | X (MIC of less than 1 μg/mL) | Y (MIC of 1 μg/mL to 10 μg/mL) | Y (MIC of 1 μg/mL to 10 μg/mL) | % Monomer in 1 mg/mL salt solution [14]: 95.8%; Ki (KPC-2): > 10 nM; AZT MPC4 KPC-2 KP1004 (KP1004 (KPC-2) [15]): Y (MIC of 1 μg/mL to 10 μg/mL); TIG MPC4 CMY-6 EC1010 (EC1010 (CMY-6) [16]): Y (MIC of 1 μg/mL to 10 μg/mL); Ki (P99): > 10 nM; Ki (CTX-M-14): 1 to 10 nM; AZT MPC4 TEM-10 ec302 (ec302 (TEM-10) [17]): Y (MIC of 1 μg/mL to 10 μg/mL); Ki (SHV-12): < 1 nM; Ki (OXA-48): 1 to 10 nM
